# Laboratory results reported in US11319305B2, “Pyrimidine sulfamide derivative and preparation method and medical application thereof” (SHIJIAZHUANG SAGACITY NEW DRUG DEVELOPMENT CO., LTD., priority 2017, dated 2022).
# What was measured:
# [1] = biological target: T1, CYP1A2 (Homo sapiens, UniProt P05177); experiment: Human liver microsomal cytochrome P450 isozyme inhibition assay, CYP1A2; format: in vitro ADME; conditions: human liver microsomes
# T1 construct: Mixed human liver microsomes (HLM) were purchased from Corning Inc; tissue Corning Inc; host or cells: pooled human liver microsomes
# T1 sequence (P05177 1-516): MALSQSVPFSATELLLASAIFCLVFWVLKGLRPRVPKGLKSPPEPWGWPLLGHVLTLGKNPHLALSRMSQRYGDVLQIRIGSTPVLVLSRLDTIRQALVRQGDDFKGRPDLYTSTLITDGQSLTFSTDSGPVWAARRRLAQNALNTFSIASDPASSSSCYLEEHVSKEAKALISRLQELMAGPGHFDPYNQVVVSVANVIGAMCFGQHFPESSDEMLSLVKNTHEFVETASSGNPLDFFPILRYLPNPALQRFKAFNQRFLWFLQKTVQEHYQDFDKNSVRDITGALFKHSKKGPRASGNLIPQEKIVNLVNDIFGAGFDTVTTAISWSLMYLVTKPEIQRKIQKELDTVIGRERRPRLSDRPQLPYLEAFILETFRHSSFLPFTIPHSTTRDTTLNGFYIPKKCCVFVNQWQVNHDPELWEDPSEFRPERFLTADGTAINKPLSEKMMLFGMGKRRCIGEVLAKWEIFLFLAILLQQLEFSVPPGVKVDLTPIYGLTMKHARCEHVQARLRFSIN
# Description: (§1) Experimental Embodiment 4: Human Liver Microsomal Cytochrome P450 Isozyme Inhibition Assay The purpose of the assay was to evaluate the inhibitory activity of the samples against human liver microsomal cytochrome P450 isozyme (CYP1A2, CYP2C9, CYP2C19, CYP2D6 and CYP3A4) using the 5-in-1 probe substrate of the CYP isozyme. Mixed human liver microsomes (HLM) were purchased from Corning Inc. (Steuben, N.Y., USA) and stored below −80° C. before use. The test compound working solution which has been diluted into serial concentrations was added to an incubation system containing human liver microsomes, probe substrates and circulating system cofactors, and a control containing solvent without the test compound was used as the enzyme activity control (100%). The concentration of the metabolite produced by the probe substrate in the sample was determined using a liquid chromatography-tandem mass spectrometry (LC-MS/MS) method. Nonlinear regression analysis was performed on the average percent activity versus concentration of subjects using SigmaPlot (V.11). The IC50 value was calculated by a three-parameter or four-parameter inverse-logarithmic equation.
# [2] = biological target: T2, CYP2C9 (Homo sapiens, UniProt P11712); experiment: Human liver microsomal cytochrome P450 isozyme inhibition assay, CYP2C9; format: in vitro ADME; conditions: human liver microsomes
# T2 construct: Mixed human liver microsomes (HLM) were purchased from Corning Inc; tissue Corning Inc; host or cells: pooled human liver microsomes
# T2 sequence (P11712 whole entry): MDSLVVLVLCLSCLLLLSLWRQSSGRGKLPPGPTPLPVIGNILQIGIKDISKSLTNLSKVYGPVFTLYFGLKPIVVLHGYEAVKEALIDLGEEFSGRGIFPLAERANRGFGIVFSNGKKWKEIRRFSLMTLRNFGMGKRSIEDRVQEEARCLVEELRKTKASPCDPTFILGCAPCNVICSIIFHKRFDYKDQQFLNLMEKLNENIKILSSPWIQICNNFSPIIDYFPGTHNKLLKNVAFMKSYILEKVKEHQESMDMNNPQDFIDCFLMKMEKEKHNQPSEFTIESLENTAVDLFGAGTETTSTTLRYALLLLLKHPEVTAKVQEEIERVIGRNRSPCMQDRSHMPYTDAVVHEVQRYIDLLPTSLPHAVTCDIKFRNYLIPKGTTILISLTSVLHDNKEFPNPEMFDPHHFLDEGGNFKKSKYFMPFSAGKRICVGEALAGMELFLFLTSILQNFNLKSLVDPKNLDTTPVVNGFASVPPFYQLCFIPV
# Description: as §1
# [3] = biological target: T3, human ETA receptor (Homo sapiens, UniProt P25101); experiment: In vitro antagonistic effect against human ETA receptor, Ca2+ signal in SK-N-MC cells; format: cell-based; conditions: for IC50: SK-N-MC cells, response to 1 nM endothelin-1; for ETA/ETB selectivity: ratio of ETB IC50 to ETA IC50
# T3 construct: endogenously expressed human ETA receptors in SK-N-MC cells; host or cells: SK-N-MC cells
# T3 sequence (P25101 21-427): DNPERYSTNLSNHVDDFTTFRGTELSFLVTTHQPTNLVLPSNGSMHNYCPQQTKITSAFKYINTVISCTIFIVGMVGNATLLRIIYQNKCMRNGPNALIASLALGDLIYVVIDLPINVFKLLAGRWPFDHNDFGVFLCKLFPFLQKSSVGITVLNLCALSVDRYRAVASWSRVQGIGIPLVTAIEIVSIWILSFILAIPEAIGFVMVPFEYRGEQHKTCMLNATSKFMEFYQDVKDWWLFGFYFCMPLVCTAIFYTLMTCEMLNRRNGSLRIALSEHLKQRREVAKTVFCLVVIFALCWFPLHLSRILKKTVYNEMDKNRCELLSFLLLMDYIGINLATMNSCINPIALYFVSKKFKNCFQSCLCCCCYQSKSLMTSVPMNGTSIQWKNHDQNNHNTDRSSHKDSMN
# Description: Experimental Embodiment 1: In Vitro Test of Antagonistic Effect Against Human ETA Receptor
# Antagonistic activity of the compounds against endogenously expressed human ETA receptors in SK-N-MC cells was evaluated by measuring the effect of compounds on the changes in cytoplasmic Ca^2+ ion signal induced by human ETA receptor agonists using fluorescence detection methods. The functional activity of the ETA receptor antagonistic effect was tested in Eurofins-Cerep SA according to current standard procedures.
# 1. Cells were suspended in Dulbecco's modified Eagle medium solution (DMEM, Invitrogen) supplemented with 1% FCSd, then distributed in 384-well plate (100 μL/well) at a density of 5×10^4 cells/well;
# 2. Probenecid in Hank's balanced salt solution (HBSS, Invitrogen) supplemented with 20 mM 4-(2-hydroxyethyl)piperazine-1-ethanesulfonic acid (Hepes, Invitrogen) (pH 7.4) was mixed with fluorescent probe (Fluo4 NW, Invitrogen), the mixture was added to each wells, then balanced with cells at 37° C. for 60 minutes, and then balanced with cells at 22° C. for 15 minutes;
# (§2) 3. The test plate was placed in a microplate reader (CellLux, PerkinElmer), a DMSO solution or HBSS buffer with an appropriate concentration of the test compound and the positive control was added, and 1 nM endothelin-1 or HBSS buffer (base control) was added after 5 minutes, and then the change in fluorescence intensity proportional to the concentration of Ca^2+ ions of free […] was measured;
# 5. Standard positive control was BQ-123, several concentrations were tested in each experiments. The data was analyzed using Prism to generate a concentration-response curve, and IC50 values of the compounds were calculated.
# [4] = biological target: T4, CYP2C19 (Homo sapiens, UniProt P33261); experiment: Human liver microsomal cytochrome P450 isozyme inhibition assay, CYP2C19; format: in vitro ADME; conditions: human liver microsomes
# T4 construct: Mixed human liver microsomes (HLM) were purchased from Corning Inc; tissue Corning Inc; host or cells: pooled human liver microsomes
# T4 sequence (P33261 whole entry): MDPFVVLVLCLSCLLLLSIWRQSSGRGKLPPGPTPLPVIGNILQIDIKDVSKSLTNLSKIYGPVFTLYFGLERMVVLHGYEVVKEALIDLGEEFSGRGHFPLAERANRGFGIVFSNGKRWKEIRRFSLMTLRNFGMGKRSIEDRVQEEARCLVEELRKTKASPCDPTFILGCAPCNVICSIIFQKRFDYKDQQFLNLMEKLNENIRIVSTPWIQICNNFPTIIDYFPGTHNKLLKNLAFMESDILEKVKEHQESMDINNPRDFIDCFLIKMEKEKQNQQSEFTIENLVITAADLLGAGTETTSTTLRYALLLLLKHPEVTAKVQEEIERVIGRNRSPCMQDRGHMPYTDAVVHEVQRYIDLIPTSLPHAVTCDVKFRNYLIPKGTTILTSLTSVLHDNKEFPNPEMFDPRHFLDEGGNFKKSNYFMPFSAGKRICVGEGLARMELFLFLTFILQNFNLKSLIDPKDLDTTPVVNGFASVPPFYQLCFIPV
# Description: as §1
# [5] = biological target: T5, CYP3A4 (Homo sapiens, UniProt P08684); experiment: Human liver microsomal cytochrome P450 isozyme inhibition assay, CYP3A4; format: in vitro ADME; conditions: human liver microsomes
# T5 construct: Mixed human liver microsomes (HLM) were purchased from Corning Inc; tissue Corning Inc; host or cells: pooled human liver microsomes
# T5 sequence (P08684 whole entry): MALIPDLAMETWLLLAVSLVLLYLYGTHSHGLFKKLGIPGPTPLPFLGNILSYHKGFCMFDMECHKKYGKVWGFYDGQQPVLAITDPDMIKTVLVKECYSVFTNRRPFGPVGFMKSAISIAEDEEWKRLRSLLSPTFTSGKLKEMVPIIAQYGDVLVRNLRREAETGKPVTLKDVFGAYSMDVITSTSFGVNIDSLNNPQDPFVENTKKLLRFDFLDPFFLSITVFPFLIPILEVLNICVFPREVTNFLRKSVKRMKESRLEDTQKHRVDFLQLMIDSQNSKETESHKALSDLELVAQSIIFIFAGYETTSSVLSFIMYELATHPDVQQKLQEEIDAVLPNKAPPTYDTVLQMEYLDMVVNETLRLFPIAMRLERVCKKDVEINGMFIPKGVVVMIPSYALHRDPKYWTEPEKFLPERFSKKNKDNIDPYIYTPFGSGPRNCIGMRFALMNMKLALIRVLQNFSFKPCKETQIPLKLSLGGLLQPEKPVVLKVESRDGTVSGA
# Description: as §1
# [6] = biological target: T6, human ETB receptor (Homo sapiens, UniProt P24530); experiment: In vitro antagonistic effect against human ETB receptor, Ca2+ signal in transfected CHO cells; format: cell-based; conditions: response to 0.3 nM endothelin-1
# T6 construct: host or cells: CHO cells
# T6 sequence (P24530 27-442): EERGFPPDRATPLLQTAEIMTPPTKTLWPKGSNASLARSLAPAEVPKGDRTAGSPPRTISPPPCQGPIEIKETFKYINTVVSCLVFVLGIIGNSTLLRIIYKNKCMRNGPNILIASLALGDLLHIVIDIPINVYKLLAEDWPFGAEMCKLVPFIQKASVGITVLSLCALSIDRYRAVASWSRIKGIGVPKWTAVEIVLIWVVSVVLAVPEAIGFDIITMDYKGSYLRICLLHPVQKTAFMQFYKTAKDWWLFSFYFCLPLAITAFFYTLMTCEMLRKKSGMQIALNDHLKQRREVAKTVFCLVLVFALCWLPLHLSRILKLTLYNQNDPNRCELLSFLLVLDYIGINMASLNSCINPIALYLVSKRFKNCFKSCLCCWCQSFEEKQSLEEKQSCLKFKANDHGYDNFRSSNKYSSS
# Description: Antagonist activity of the compound against human ETB receptors expressed in transfected CHO cells was evaluated by measuring the effect of the compound on the changes in the cytoplasmic Ca^2+ ion signal induced by human ETB receptor agonists. The functional activity of the ETB receptor antagonistic effect was tested in Eurofins-Cerep SA according to current standard procedures.
# 1. Cells were suspended in DMEM buffer (Invitrogen) and then distributed in 384-well plate (100 μL/well) at a density of 3×10^4 cells/well;
# 2. Probenecid in HBSS buffer (Invitrogen) supplemented with 20 mM Hepes (Invitrogen) (pH 7.4) was mixed with fluorescent probe (Fluo4 NW, Invitrogen), the mixture was added to each wells, then balanced with cells at 37° C. for 60 minutes, and then balanced with cells at 22° C. for 15 minutes;
# as §2, with “and 0.3” for “and 1”
# 4. Results were shown as the percent inhibition of control response to 0.3 nM endothelin-1;
# 5. Standard positive control was BQ-788, several concentrations were tested in each experiments. The data was analyzed using Prism to generate a concentration-response curve, and IC50 values of the compounds were calculated.
# [7] = biological target: T7, CYP2D6 (Homo sapiens, UniProt P10635); experiment: Human liver microsomal cytochrome P450 isozyme inhibition assay, CYP2D6; format: in vitro ADME; conditions: human liver microsomes
# T7 construct: Mixed human liver microsomes (HLM) were purchased from Corning Inc; tissue Corning Inc; host or cells: pooled human liver microsomes
# T7 sequence (P10635 whole entry): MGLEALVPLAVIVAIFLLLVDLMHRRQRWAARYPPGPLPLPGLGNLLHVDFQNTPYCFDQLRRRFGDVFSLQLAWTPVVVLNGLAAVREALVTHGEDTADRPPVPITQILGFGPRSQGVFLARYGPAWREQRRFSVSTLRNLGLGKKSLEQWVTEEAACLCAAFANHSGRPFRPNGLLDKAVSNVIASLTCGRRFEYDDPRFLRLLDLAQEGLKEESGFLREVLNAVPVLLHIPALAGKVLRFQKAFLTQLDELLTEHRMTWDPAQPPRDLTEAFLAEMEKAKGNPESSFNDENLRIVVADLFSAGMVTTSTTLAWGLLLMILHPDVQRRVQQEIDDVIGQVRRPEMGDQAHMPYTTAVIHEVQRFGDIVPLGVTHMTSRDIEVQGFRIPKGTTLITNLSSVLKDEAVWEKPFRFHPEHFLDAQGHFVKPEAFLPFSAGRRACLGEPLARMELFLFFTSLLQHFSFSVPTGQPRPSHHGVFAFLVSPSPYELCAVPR
# Description: as §1
# [8] = tested on: human liver microsomal cytochrome P450 isozyme (CYP1A2, CYP2C9, CYP2C19, CYP2D6 and CYP3A4); experiment: Human liver microsomal cytochrome P450 isozyme inhibition assay, summary over the main isozymes; format: in vitro ADME
# Description: as §1
SMILES,IC50 [1] [µM],IC50 [2] [µM],IC50 [3] [µM],ETA/ETB selectivity [3],IC50 [4] [µM],IC50 [5] [µM],IC50 [6] [µM],IC50 [7] [µM],inhibitory effects on five main isozymes of CYP (in words) [8]
O=S(=O)(NCC1CC1)Nc1ncnc(OCCOc2ncc(Br)cn2)c1-c1ccc2scnc2c1 [WX005],> 50,> 50,0.0014,78500,> 50,> 50,110,> 50,very weak
CCCNS(=O)(=O)Nc1ncnc(OCCOc2ncc(Br)cn2)c1-c1ccc2ccnn2c1 [WX025],> 50,35,0.0031,19600,> 50,> 50,61,> 50,very weak
